One experiment concerns the target T1, HLA-A*02:01 (Homo sapiens, UniProt P04439, D140Y/D185E/D98H/E176V/E277Q/G131W/G231S/I119V/I121R/I166T/I218V/L300P/L318F/N151K/N90K/P208A/P217A/Q86G/Q94H/R138H/R169H/T345S).
T1 construct: purchased ProImmune (contracted REVEAL assay service)
Nature of the experiment: REVEAL binding assay of 9-mer P210 peptides. Particulars: for binding to HLA-A*02:01 (REVEAL binding score), in words: tested by ProImmune. Here is the method: The human Class-I HLA that occurs with the highest frequency in North America is HLA-A*02:01; and P210 epitope binding to HLA-A*02:01 was tested by ProImmune using the REVEAL assay. The REVEAL assay used 9-mer sequential peptides of P210 to assess binding to HLA-A*02:01 (Table 2): a plurality of 9-amino acid fragments, each identical to residues 1-9, 2-10, 3-11, 4-12, 5-13, 6-14, 7-15, 8-16, 9-17, 10-18, 11-19, or 12-20 of P210. […] ApOBKTTKQSFDL (SEQ ID NO:2) pentamer was able to detect a small but significant population of P210-specific CD8+ T cells in PBMCs from healthy HLA-A*02:01(+) volunteers (FIG. 7B-7E).
(§1) Proimmune was contracted to screen for potential binding epitopes in P210 to HLA-A*02:01. […] For pentamer staining, commercially available HLA-A*02:01 typed cryo-preserved PBMCs (Immunospot) were thawed, rinsed in anti-aggregation solution (Immunospot) and divided into 2×10^6 cell aliquots. ApOBKTTKQSFDL (SEQ ID NO:2) pentamer staining was performed according to manufacturer's instruction, with the HLA-A*02:01 Negative Pentamer (ProImmune) as negative control. Each sample stained for ApOBKTTKQSFDL (SEQ ID NO:2) pentamer had its corresponding negative control stain. Cells were washed and then stained for CD8 (LT8) andddCD19 (HIB19). Cells were again washed after staining and resuspended in 1% paraformaldehyde in 1% BSA/0.1% sodium azide and analyzed. ApOBKTTKQSFDL (SEQ ID NO:2) pentamer positive cells for each sample were determined based on the corresponding Negative Pentamer.

Experiment [1] concerns human PBMCs. The experiment in a line: Peptide stimulation of human PBMC (T effector / effector memory, Response Index). Type of experiment: cell-based. Particulars: 20 μg/ml P210, 72 h; ACS PBMCs compared to controls. Here is the method:
Cryo-preserved PBMCs were thawed, rinsed and cultured as in AIM assay but without resting. Cells were stimulated with 20 μg/ml P210 peptide or 0.5× T cell stimulation cocktail containing phorbol 12-myristate 13-acetate (PMA) and ionomycin (Thermo Fisher) with non-treated cells serving as negative control. Culture medium was added at ⅓ of the starting volume 48 hours later to replenish the nutrients in the medium. Cells were harvested 72 hours after seeding, stained for viability (LIVE/DEAD Fixable Aqua Dead Stain Kit, ThermoFisher), and subjected to cell surface staining for flow cytometry using the following antibodies: CD3, CD4, CD8, CD45RA, CD45RO, CD62L, and CD197 (CCR7). Isotypes were used as staining control. CD4^+ or CD8^+ T Effector cells were gated on CD45RO^+CD62L^−CD197^−. T Effector Memory cells were CD45RO^+CD45RA^−CD62L^−CD197^−.
Results were Tabulated as Response Index Using the Following Calculation:
(% peptide stimulation−% no stimulation)/(% cocktail stimulation)×100.
The results are expressed as Response Index to account for inherent variations introduced by culturing cells in vitro over time, controlled for by assessing response relative to baseline cell phenotype (% no stimulation) and maximal stimulation (% cocktail stimulation) for each subject PBMC. Each data point represents one subject.

For experiment [2], the system named is PBMCs from HLA-A*02:01(+) volunteers. The experiment in a line: ApoB KTTKQSFDL pentamer(+) CD8+ T cells in human PBMCs cultured with P210. Type of experiment: cell-based. To be noted: PBMCs cultured with 20 μg/ml P210 for 5 days. Here is the method:
as §1

For experiment [3], the system named is human PBMCs. Nature of the experiment: Activation Induced Marker (AIM) assay in human PBMC. The experiment is classed as cell-based. Here is the method:
Cryo-preserved PBMCs were thawed, rinsed in anti-aggregation solution (Immunospot), and seeded in culture plates at a density of 3×10^6 cells per ml of RPMI 1640 medium supplemented with 10% heat-inactivated pooled human serum and 1× antibiotic/antimycotic. After resting for 4 hours, cells were preincubated with 0.5 mg/ml anti-CD40 antibody for 15 minutes then stimulated with 20 μg/ml P210 peptide, 0.5× T cell stimulation cocktail containing PMA and ionomycin (Thermo Fisher), or CMV (pp65) Peptide Pool (StemCell Tech) as a non-relevant antigen control, whereas cells without treatment served as non-stimulated control. Cells were harvested 16 hours after seeding, stained for viability (LIVE/DEAD Fixable Aqua Dead Stain Kit, Thermo Fisher), and subjected to cell surface staining for flow cytometry using the following antibodies: CD4, CD8, CD25, CD69, OX40 (CD134), CD137 (4-1 BB) and CD154 (CD40L). Isotypes were used as staining control and eFluor506 labelled CD14, CD16 and CD19 antibodies were used as dump staining to exclude B cells, dendritic cells, macrophages, granulocytes, eosinophil cells and neutrophil cells. The results are expressed as fold change (ratio between the signal in the antigen stimulated condition and the signal in the unstimulated condition) for each subject, consistent with the reported AIM assay.

For a further experiment, the system named is A2Kb Tg ApoE-/- mice. The experiment in a line: Functional expression of A2Kb transgene (A2V7 immunization). Type of experiment: in vivo, mouse. Particulars: male mice, 20 μg/100 μl s.c. in IFA; compared to IFA-injected mice, P<0.05. Here is the method: Male A2Kb Tg ApoE^−/− mice were immunized with the HLA-A*02:01-restricted peptide A2V7 from human hepatitis C virus (HCV NS5a 1987-1995, VLSDFKTWL (SEQ ID NO:34); ProImmune) emulsified in incomplete Freund's adjuvant (IFA; MP Biomedicals) at 9 and 10 weeks of age by subcutaneous injection at a dose of 20 μg/100 μl. Mice immunized with 100 μl IFA alone served as control. Mice were euthanized at 11 weeks of age. HLA-A*02:01 restricted antigen specific immune response was evaluated by flow cytometric analysis of splenocytes stained with CD19 (6D5), CD8a (KT15), and PE-conjugated HLA-A*02:01/A2V7-pentamer (ProImmune).

Where [4] appears, read: 20 μg/ml P210, 16 h, ACS patients compared to control subjects.

Results on three sequences are retold here after patent US20230355763A1, “NANOPARTICLE VACCINES AND USES THEREOF FOR PROPHYLAXIS AND TREATMENT OF ATHEROSCLEROSIS USING PEPTIDE 210 AS AN ANTIGEN” (CEDARS-SINAI MEDICAL CENTER, priority 2022, published 2023).

In the case of “KTTKQSFDL (listed as Homo sapiens) [Peptide 1]”, in the experiment with HLA-A*02:01 (sequential 9-mer P210 peptides), the “binding to HLA-A*02:01 (REVEAL binding score)” value is listed as “KTTKQSFDL*”. Further, the “binding to HLA-A*02:01 (REVEAL binding score), in words” value in the experiment with HLA-A*02:01 (listed as First 9-mer sequence in P210) was “high binding score”; with HLA-A*02:01 (listed as first 9-mer), “scored well, comparable to the positive control”.

Turning to “KTTKQSFDLSVKAQYKKNKH (listed as Homo sapiens) [Peptide P210, ApoB-100 derived peptide P210 (ApoB-100 3136-3155)]”, in the experiment with human PBMCs [1], the “CD4+ T effector cell response to P210” value is “not significantly different”, the “CD8+ T effector memory response to P210” value was “significant increase” and the “CD8+ T effector response to P210” value was “significant increase”. The “tested samples with an increase of pentamer specific CD8+ T cells” value in experiment [2] is 5 out of 8. Besides, in the experiment with human PBMCs [3] (setting [4]), the “CD8+CD69+CD134+ T cells after P210 stimulation” value is on record as “no such increase was observed” and the “mean increase in CD4+CD69+CD134+ T cells after P210 stimulation” value was 1.5 fold. Further, the “markers for other AIM(+) cells (CD25+CD134+, CD69+CD154+, CD134+CD137+)” value with human PBMCs [3] (after P210 stimulation, ACS vs controls) was “not different compared to Controls”.

In the case of “VLSDFKTWL [Peptide A2V7, HLA-A*02:01-restricted peptide from human hepatitis C virus (HCV NS5a 1987-1995)]”, the “A2V7-pentamer+ CD8+ T cells in the spleen” value with A2Kb Tg ApoE-/- mice is recorded as “significantly increased”.
